Our source for the Activity values is ChEMBL document CHEMBL3244190, “2,3-Dihydroxy-9-amino-9,10-dihydrophenanthrene, a rigid congener of dopamine and isoapomorphine” (J Med Chem, 1978).

Molecules are shown by their SMILES. The source made the active and inactive calls. No cut-off for these calls is given here.

Assay [1] addresses T1, Adenylate cyclase (Rattus norvegicus) (UniProt D4A3N4+P26770+Q04400+P26769+Q03343+P40146+Q8CFM9+P21932). Kind of assay: Activation of rat striatal homogenate adenylate cyclase assessed as cAMP level at 100 uM after 2.5 mins relative to control.
In assay [2] the target is T1, Adenylate cyclase (Rattus norvegicus). The assay can be described thus: Inhibition of dopamine-induced adenylate cyclase activation in rat striatal homogenate assessed as enzyme activity at 100 uM after 2.5 mins relative to control. Set-up: scale not given: the % may be the effect or the level left.
Assay [3] shares this target. Kind of assay: Activation of rat striatal homogenate adenylate cyclase assessed as cAMP level at 10 uM after 2.5 mins relative to control.
The next assay concerns Canis familiaris. The assay can be described thus: Induction of vasodilation in intraarterially dosed anesthetized Mongrel dog at 3 umol. It is filed as functional, organism-based. As to conditions: Canis lupus familiaris.

With `NCCc1ccc(O)c(O)c1`, in assay [1], the Activity was determined as 150%.
Turning to `NC1Cc2cc(O)c(O)cc2-c2ccccc21` (stereo not given), the Activity in assay [2] was found to be 149%; in assay [3] it was 100%; in assay [1], 92%. Besides, the outcome in the assay on Canis familiaris was inactive.
